One data set addresses human DDAH-1 (Homo sapiens, UniProt O94760). The data set can be described thus: dose-dependent inhibition of isolated enzyme. It counts as biochemical.
The target of data set [1] is T1, dimethylarginine dimethylaminohydrolase (P. aeruginosa DDAH) (Pseudomonas aeruginosa, UniProt Q9I4E3).
T1 sequence (Q9I4E3 1-254): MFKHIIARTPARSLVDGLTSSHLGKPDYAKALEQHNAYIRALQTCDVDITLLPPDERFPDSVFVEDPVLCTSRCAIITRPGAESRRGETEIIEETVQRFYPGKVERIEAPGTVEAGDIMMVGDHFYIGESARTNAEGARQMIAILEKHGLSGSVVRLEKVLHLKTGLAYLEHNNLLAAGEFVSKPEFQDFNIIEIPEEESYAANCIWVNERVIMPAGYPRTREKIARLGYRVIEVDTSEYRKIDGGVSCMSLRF
The experiment in a line: dose-dependent inhibition of isolated enzyme. It counts as biochemical.

Substrate in data set [2]: CSC(=N)NCCC[C@H](N)C(=O)O
The data set can be described thus: steady-state kinetics, DTNB-coupled 384-well assay. Type of data set: biochemical, Pseudomonas aeruginosa.

Sequence of human DDAH-1 (O94760 2-285): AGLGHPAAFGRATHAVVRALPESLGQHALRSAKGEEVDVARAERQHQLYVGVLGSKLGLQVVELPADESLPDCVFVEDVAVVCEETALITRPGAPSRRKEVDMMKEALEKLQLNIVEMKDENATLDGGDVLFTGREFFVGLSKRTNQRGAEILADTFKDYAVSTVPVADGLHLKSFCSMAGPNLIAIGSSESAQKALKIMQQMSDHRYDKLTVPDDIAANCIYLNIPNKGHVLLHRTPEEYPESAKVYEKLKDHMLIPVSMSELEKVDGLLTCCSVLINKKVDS

Broadly, the IC50 is the concentration that gives 50% inhibition. Read a high IC50 as a need for much substance. Turning to `O=c1c2ccccc2[se]n1-c1ccccc1` [ebselen], the results for the 50% inhibitory concentration (IC50) (at human DDAH-1; in data set [1]) were 330 ± 30 nM and 96 ± 2 nM, respectively.

B1: dimethylarginine dimethylaminohydrolase (P. aeruginosa DDAH) (Pseudomonas aeruginosa PAO1) (protein)
chain: MFKHIIARTPARSLVDGLTSSHLGKPDYAKALEQHNAYIRALQTCDVDITLLPPDERFPDSVFVEDPVLCTSRCAIITRPGAESRRGETEIIEETVQRFYPGKVERIEAPGTVEAGDIMMVGDHFYIGESARTNAEGARQMIAILEKHGLSGSVVRLEKVLHLKTGLAYLEHNNLLAAGEFVSKPEFQDFNIIEIPEEESYAANCIWVNERVIMPAGYPRTREKIARLGYRVIEVDTSEYRKIDGGVSCMSLRF
Broadly, the Km is the concentration of substrate that gives half-maximal velocity. Regarding B1, in data set [2], the Michaelis-Menten constant (Km) is given as 22 ± 1 µM.
